Assay results from patent publication US20190218207A1, “3-(Pyridin-3-yl)-Acrylamide and N-(Pyridin-3-yl)-Acrylamide Derivatives and Their Use as PAK or NAMPT Modulators” (Karyopharm Therapeutics Inc., priority 2015, published 2019).
Read-outs that look alike come from different tables or passages of the source.

Experiments:
Z138 cells = assay: MTT cell proliferation assay, Z138 cells; format: cell-based, human
Experimental: (§1) The MTT cell proliferation assay was used to study the cytotoxic properties of the compounds. The assay was performed according to the method described by Roche Molecular Biochemicals, with minor modifications. The assay is based on the cleavage of the tetrazolium salt, MTT, in the presence of an electron-coupling reagent. The water-insoluble formazan salt produced must be solubilized in an additional step. Cells grown in a 96-well tissue culture plate were incubated with the MTT solution for approximately 4 hours. After this incubation period, a water-insoluble formazan dye formed. After solubilization, the formazan dye was quantitated using a scanning multi-well spectrophotometer (ELISA reader). […] The cells were seeded at 5,000-10,000 cells in each well of 96-well plate in 100 μL of fresh culture medium and were allowed to attach overnight. The stock solutions of the compounds were diluted in […] cell culture medium to obtain eight concentrations of each test compound, ranging from 1 nM to 30 μM. […] All optical densities were measured at 490 nm using a Vmax Kinetic Microplate Reader (Molecular Devices). In most cases, the assay was performed in duplicate and the results were presented as a mean percent inhibition to the negative control±SE. The following formula was used to calculate the percent of inhibition: Inhibition (%)=(1-(ODo/OD))×100.
(§2) The compounds were tested against MS751, Z138 and 3T3 cells. The MS751 cell line is derived from a metastasis to lymph node of human cervix from a patient diagnosed with squameous cell carcinoma of the cervix. The Z138 cell line is a mature B-cell acute lymphoblastic leukemia cell line derived from a patient with chronic lumphocytic leukemia. 3T3 cells are standard fibroblast cells; they were originally isolated from Swiss mouse embryo tissue.

3T3 cells = assay: MTT cell proliferation assay, 3T3 cells; format: cell-based, mouse; settings: 3T3 fibroblast cells, incubation approximately 64-72 hours
Experimental: as §1, §2

MS751 cells = assay: MTT cell proliferation assay, MS751 cells; format: cell-based, human; settings: Homo sapiens, incubation approximately 64-72 hours, read-out: MTT Assay IC50, MS 751
Experimental: as §1, §2

[1] = Homo sapiens, Z-138, incubation approximately 64-72 hours

Compound	IC50 (Z138 cells; [1])	IC50 (3T3 cells; Mus musculus, NIH3T3)	IC50 (MS751 cells)	IC50 (Z138 cells; incubation approximately 64-72 hours, read-out: MTT Assay IC50, Z-138)	IC50 (3T3 cells)
O=C(/C=C/c1cccnc1)NCc1ccc(-c2ccc(-c3ccc(C(=O)N4CCC(F)(F)CC4)cn3)cc2C(F)(F)F)o1 [Compound A002, (E)-N-((5-(4-(5-(4,4-difluoropiperidine-1-carbonyl)pyridin-2-yl)-2-(trifluoromethyl)phenyl)furan-2-yl)methyl)-3-(pyridin-3-yl)acrylamide]	< 1000 nM	> 10000 nM	< 1000 nM		
Nc1ccc(/C=C/C(=O)NCc2ccc(-c3c(C(F)(F)F)cc(-c4ccc(C(=O)N5CC(F)(F)C5)cn4)cc3C(F)(F)F)o2)cn1 [Compound A025, (E)-3-(6-aminopyridin-3-yl)-N-((5-(4-(5-(3,3-difluoroazetidine-1-carbonyl)pyridin-2-yl)-2,6-bis(trifluoromethyl)phenyl)furan-2-yl)methyl)acrylamide]	< 1000 nM	< 1000 nM	< 1000 nM		
2-(6-aminopyridin-3-yloxy)-N-((4-(3-(4-fluorophenyl)-4′-(4,4-difluoropiperidine-1-carbonyl)biphenyl-4-yl)furan-2-yl)methyl)acetamide [Compound A028]				< 1000 nM	> 10000 nM
Nc1ccc(/C=C/C(=O)NCc2cnc(-c3ccc(-c4ccc(C(=O)N5CC(F)C5)cc4F)cc3C(F)(F)F)o2)cn1 [Compound A020, (E)-3-(6-aminopyridin-3-yl)-N-((2-(2′-fluoro-4′-(3-fluoroazetidine-1-carbonyl)-3-(trifluoromethyl)-[1,1′-biphenyl]-4-yl)oxazol-5-yl)methyl)acrylamide]	< 1000 nM	1000 to 5000 nM	< 1000 nM		
Cc1c(CNC(=O)/C=C/c2ccc(N)nc2)sc(-c2ccc(-c3ccc(C(=O)N4CC(F)C4)cc3)cc2C(F)(F)F)c1C [Compound A016, (E)-3-(6-aminopyridin-3-yl)-N-((5-(4′-(3-fluoroazetidine-1-carbonyl)-3-(trifluoromethyl)-[1,1′-biphenyl]-4-yl)-3,4-dimethylthiophen-2-yl)methyl)acrylamide]	> 10000 nM	> 10000 nM	> 10000 nM		
Nc1ccc(/C=C/C(=O)NCc2ccc(-c3ccc(-c4ccc(C(=O)N5CCC(F)(F)CC5)cn4)cc3Cl)o2)cn1 [Compound A006, (E)-3-(6-aminopyridin-3-yl)-N-((5-(2-chloro-4-(5-(4,4-difluoropiperidine-1-carbonyl)pyridin-2-yl)phenyl)furan-2-yl)methyl)acrylamide]	< 1000 nM	1000 to 5000 nM	< 1000 nM		
Nc1ccc(/C=C/C(=O)NCc2ccc(-c3ccc(-c4ccc(C(=O)N5CCC(F)(F)CC5)cn4)cc3C(F)(F)F)s2)cn1 [Compound A005, (E)-3-(6-aminopyridin-3-yl)-N-((5-(4-(5-(4,4-difluoropiperidine-1-carbonyl)pyridin-2-yl)-2-(trifluoromethyl)phenyl)thiophen-2-yl)methyl)acrylamide]	< 1000 nM	1000 to 5000 nM	< 1000 nM		
Cc1c(CNC(=O)/C=C/c2ccc(N)nc2)sc(-c2ccc(-c3ccc(C(=O)N4CC(F)C4)cc3)cc2-c2ccc(F)cc2)c1C [Compound A013, (E)-3-(6-aminopyridin-3-yl)-N-((5-(4″-fluoro-4-(3-fluoroazetidine-1-carbonyl)-[1,1′:3′,1″-terphenyl]-4′-yl)-3,4-dimethylthiophen-2-yl)methyl)acrylamide]	< 1000 nM	> 10000 nM	1000 to 5000 nM		
Nc1ccc(/C=C/C(=O)NCc2ccc(-c3ccc(-c4ccc(C(=O)N5CCC(F)(F)CC5)cc4)cc3-c3ccc(F)cc3)o2)cn1 [Compound A008, (E)-3-(6-aminopyridin-3-yl)-N-((5-(4-(4,4-difluoropiperidine-1-carbonyl)-4″-fluoro-[1,1′:3′,1″-terphenyl]-4′-yl)furan-2-yl)methyl)acrylamide]	< 1000 nM	5000 to 10000 nM	< 1000 nM		
Cn1c(CNC(=O)/C=C/c2ccc(N)nc2)ccc1-c1ccc(-c2ccc(C(=O)N3CCC(F)(F)CC3)cc2)cc1-c1ccc(F)cc1 [Compound A-012, (E)-3-(6-aminopyridin-3-yl)-N-((5-(4-(4,4-difluoropiperidine-1-carbonyl)-4″-fluoro-[1,1′:3′,1″-terphenyl]-4′-yl)-1-methyl-1H-pyrrol-2-yl)methyl)acrylamide]	> 10000 nM	> 10000 nM	> 10000 nM		
Nc1ccc(/C=C/C(=O)NCc2ccc(-c3cc4c(C(=O)N5CCC(F)(F)CC5)c[nH]c4cc3C(F)(F)F)o2)cn1 [Compound A029, (E)-3-(6-aminopyridin-3-yl)-N-((5-(3-(4,4-difluoropiperidine-1-carbonyl)-6-(trifluoromethyl)-1H-indol-5-yl)furan-2-yl)methyl)acrylamide]	< 1000 nM	> 10000 nM			
Nc1ccc(/C=C/C(=O)NCc2cnc(-c3ccc(-c4ccc(C(=O)N5CC(F)(F)C5)cc4F)cc3C(F)(F)F)o2)cn1 [Compound A022, (E)-3-(6-aminopyridin-3-yl)-N-((2-(4′-(3,3-difluoroazetidine-1-carbonyl)-2′-fluoro-3-(trifluoromethyl)-[1,1′-biphenyl]-4-yl)oxazol-5-yl)methyl)acrylamide]	< 1000 nM	< 1000 nM	< 1000 nM		
Nc1ccc(/C=C/C(=O)NCc2ncc(-c3ccc(-c4ccc(C(=O)N5CC(F)(F)C5)cc4)cc3C(F)(F)F)o2)cn1 [Compound A024, (E)-3-(6-aminopyridin-3-yl)-N-((5-(4′-(3,3-difluoroazetidine-1-carbonyl)-3-(trifluoromethyl)-[1,1′-biphenyl]-4-yl)oxazol-2-yl)methyl)acrylamide]	< 1000 nM	1000 to 5000 nM	< 1000 nM		
Cc1cc(-c2ccc(-c3ccc(C(=O)N4CC(F)C4)cc3)cc2C(F)(F)F)sc1CNC(=O)/C=C/c1ccc(N)nc1 [Compound A014, (E)-3-(6-aminopyridin-3-yl)-N-((5-(4′-(3-fluoroazetidine-1-carbonyl)-3-(trifluoromethyl)-[1,1′-biphenyl]-4-yl)-3-methylthiophen-2-yl)methyl)acrylamide]	< 1000 nM	5000 to 10000 nM	< 1000 nM		
Nc1ccc(/C=C/C(=O)NCc2ccc(-c3ccc(-c4ccc(C(=O)N5CCC(F)(F)CC5)cn4)cc3C(F)(F)F)o2)cn1 [Compound A001, (E)-3-(6-aminopyridin-3-yl)-N-((5-(4-(5-(4,4-difluoropiperidine-1-carbonyl)pyridin-2-yl)-2-(trifluoromethyl)phenyl)furan-2-yl)methyl)acrylamide]	< 1000 nM	1000 to 5000 nM	< 1000 nM		
Nc1ccc(/C=C/C(=O)NCc2nnc(-c3ccc(-c4ccc(C(=O)N5CCC(F)(F)CC5)cc4)cc3-c3ccc(F)cc3)o2)cn1 [Compound A010, (E)-3-(6-aminopyridin-3-yl)-N-((5-(4-(4,4-difluoropiperidine-1-carbonyl)-4″-fluoro-[1,1′:3′,1″-terphenyl]-4′-yl)-1,3,4-oxadiazol-2-yl)methyl)acrylamide]	< 1000 nM	> 10000 nM	< 1000 nM		
Nc1ccc(/C=C/C(=O)NCc2ccc(-c3ccc(-c4ccc(C(=O)N5CCC(F)(F)CC5)cc4)cc3-c3cccc(Cl)c3)o2)cn1 [Compound A009, (E)-3-(6-aminopyridin-3-yl)-N-((5-(3″-chloro-4-(4,4-difluoropiperidine-1-carbonyl)-[1,1′:3′,1″-terphenyl]-4′-yl)furan-2-yl)methyl)acrylamide]	< 1000 nM	1000 to 5000 nM	< 1000 nM		
Cc1c(CNC(=O)/C=C/c2ccc(N)nc2)sc(-c2ccc(-c3ccc(C(=O)N4CCC(F)(F)CC4)cc3)cc2-c2ccc(F)cc2)c1C [Compound A023, (E)-3-(6-aminopyridin-3-yl)-N-((5-(4-(4,4-difluoropiperidine-1-carbonyl)-4″-fluoro-[1,1′:3′,1″-terphenyl]-4′-yl)-3,4-dimethylthiophen-2-yl)methyl)acrylamide]	< 1000 nM	> 10000 nM	1000 to 5000 nM		
Nc1ccc(/C=C/C(=O)NCc2cnc(-c3ccc(-c4ccc(C(=O)N5CC(F)(F)C5)cc4)cc3C(F)(F)F)o2)cn1 [Compound A019, (E)-3-(6-aminopyridin-3-yl)-N-((2-(4′-(3,3-difluoroazetidine-1-carbonyl)-3-(trifluoromethyl)-[1,1′-biphenyl]-4-yl)oxazol-5-yl)methyl)acrylamide]	< 1000 nM	1000 to 5000 nM	< 1000 nM		
Nc1ccc(/C=C/C(=O)NCc2ccc(-c3ccc(-c4ccc(C(=O)N5CCC(F)(F)CC5)cc4)cc3-c3ccc(F)cc3)[nH]2)cn1 [Compound A011, (E)-3-(6-aminopyridin-3-yl)-N-((5-(4-(4,4-difluoropiperidine-1-carbonyl)-4″-fluoro-[1,1′:3′,1″-terphenyl]-4′-yl)-1H-pyrrol-2-yl)methyl)acrylamide]	< 1000 nM	> 10000 nM	1000 to 5000 nM		
